The record followed here is publication PMC7616463, “Peptidic boronic acid Plasmodium falciparum SUB1 inhibitors with improved selectivity over human proteasome” (Journal of medicinal chemistry, 2024).

For data set [1], the system named is human 20S proteasome (H20S), chymotrypsin-like β5 activity. Briefly: Human 20S proteasome kinetic assay (chymotrypsin-like β5 activity). To be noted: PfSUB1 vs H20S inhibition. Type of data set: biochemical. The protocol: (§1) The fluorescent Proteasome substrate LLVY-R110 (ex: 490 nm, Em:525 nm) (#MAK172, Sigma-Aldrich) was used to measure the chymotrypsin-like activity (β5) of the human 20S proteasome and was prepared according to the activity assay kit instructions. Cleavage of this peptide generated intense green fluorescence due to the R110 group and was monitored at 520-530 nm with excitation at 480-500 nm. The purified human 20S proteasome (BML-PW8720-0050, EnzoSciences), stored at 1mg/ml in 20 mM Tris-HCl pH 7.2, 1mM EDTA, 1mM DTT 1mM NaN3, 50% glycerol was diluted in TRIS-buffered saline (TBS, pH 7.4) to an intermediate concentration of 0.44 μM. […] The reactions were performed in white 96-well fluorescent microtiter-plate format (Nunc). The Substrate solution was added first (100 μl), followed by 1 μl of the inhibitor (50 μM intermediate stock) and 1 μl of the H20S proteasome at 0.44 μM. The IC50s were determined for a selection of potent PfSUB1 inhibitors. After sequential dilution of the inhibitors in 100% DMSO, 1 μl of each dilution was used in a 100 μl reaction containing the fluorescent substrate. The reaction was initiated by the addition of 1 μl of the 20S proteasome intermediate stock solution. The fluorescence increase was monitored using a SpectraMax M5e plate reader and SoftMax Pro-6.3 software Measure activity on a plate reader (ex: 490 nm, Em: 525 nm) with the photomultiplier tube (PMT) set to medium with readings every 3 min for one hour. All measurements were done in duplicate. The progress curves were plotted within GraphPad Prism 9.5.0.

For data set [2], the system named is P. falciparum line 1AC5 (8-10-fold reduced PfSUB1). As to the kind of experiment: Parasite growth assay, PfSUB1 knock-down 1AC5 line. As to conditions: for EC50: Plasmodium falciparum, 96 h, read-out: EC50 parasite growth, 1AC5 line. Type of data set: cell-based, Plasmodium falciparum. From the text:
(§2) The DiCre-expressing P. falciparum line B11 (derived from a 3D7 background) has been described in full previously.[45] To generate a mutant line selectively expressing reduced levels of PfSUB1, we exploited the anhydrotetracycline (aTc)-inducible TetR aptamer system described by Niles and colleagues[46] and subsequently adapted by Rajaram et al.[47] Briefly, the B11 line was first modified by the incorporation into the genomic Pfs47 locus of a cassette for constitutive expression of a TetR-DOZI fusion protein. The 3’ flanking region of the SUB1 gene was then modified by incorporation of 10 Tet repressor-binding aptamers, following by limiting dilution cloning to obtain a genetically homogenous line called 1AC5. […] Complete details of the characterization of this parasite line will be provided in a separate manuscript.
(§3) The effects of test compounds on in vitro growth of the B11 and 1AC5 P. falciparum lines was determined by flow cytometry as described previously.[48] Briefly, synchronous ring-stage parasites at 0.1% parasitaemia and 2% haematocrit were dispensed into flat-bottomed 96-well culture plates (200 ul per well) each containing 1 ul of appropriate serial dilutions of boronic acid or control antimalarial compounds in DMSO. Control wells contained DMSO only. Following incubation in sealed, humidified gassed chambers at 37°C for 96 h to allow the parasites to undergo two entire cycles of erythrocytic growth, cells were fixed, stained with SYBR green and analysed by flow cytometry on a BD FACSVerse™ using BD FACSuite™ software. Data were analysed using FlowJo software. EC50 values and statistical data were determined from dose-response curves generated using GraphPad Prism 10 (GraphPad Software).

Data set [3] has as its target T1, recombinant PfSUB1 (rPfSUB1) (Plasmodium falciparum, UniProt Q8I0V0).
T1 construct: made in house
As to the kind of experiment: PfSUB1 enzyme assay (recombinant PfSUB1, fluorogenic peptide substrate). Type of data set: biochemical. On the procedure: The proteolytic activity of rPfSUB1 was monitored by the cleavage of the fluorogenic peptidic substrate SERA4st1F-6R12 (Ac-[…]-OH) and has been described previously.[28] Briefly, chymotrypsin treated rPfSUB1 (expressed and purified as described before […] was stored at −80 °C as a 228 U/mL stock in 20 mM Tris−HCl pH 8.2, 150 mM NaCl, 10% glycerol, and diluted for use (1:500) in reaction buffer (20 mM Tris−HCl pH 8.2, 150 mM NaCl, 12 mM CaCl2, 25 mM CHAPS). Peptidic boronic acid inhibitors were dissolved in 100% DMSO at 20 mM, then further diluted in DMSO to generate stock solutions ranging from 500 to 0.01 μM and then used diluted 1:100 in the enzyme reactions. All reactions were performed in wells of white 96-well microwell plates (Nunc); 50 μL diluted rPfSUB1 was preincubated for 5 min with 1 μL each of the serially diluted boronic acid inhibitors, followed by addition of 50 μL substrate solution (0.1 μM final). Subsequent fluorescence increase was continuously monitored using a SpectraMax M5e plate reader and SoftMax Pro-6.3 software, with readings taken every 3 min for 60 min using excitation and emission values of 552 and 580 nm, respectively. […] All experiments were performed in duplicate.

Data set [4] concerns P. falciparum line B11. Briefly: Parasite growth assay, wild-type B11 line. Format: cell-based. To be noted: Plasmodium falciparum; 96 h, 2 erythrocytic cycles, SYBR green flow cytometry; triplicate; 95% confidence interval in parentheses; read-out: EC50 parasite growth, B11 line.
Excerpt: as §2, with “To generate a mutant line selectively expressing reduced levels of PfSUB1, we exploited the anhydrotetracycline (aTc)-inducible TetR aptamer system described by Niles and colleagues[46] and subsequently adapted by Rajaram et al.[47]” left out
as §3

Data set [5] concerns HepG2 cells. As to the kind of experiment: Mammalian cell cytotoxicity assay (resazurin). As to conditions: for CC50 (concentration that reduced cell viability by 50%): HepG2, 48 h treatment, resazurin, triplicate, tested up to 30 μM (1a), 200 μM (4c), 150 μM (tipifarnib). Type of data set: cell-based. The protocol:
HepG2 cells were cultured in Dulbecco’s Modified Eagle Medium with F12 GlutaMAX (DMEM/F12 GlutaMAX) (Gibco) supplemented with 10% (v/v) heat-inactivated foetal calf serum (FCS), 1% L-glutamine and 1% penicillin-streptomycin (10,000 U/ml), and maintained in a humidified 5% CO2 incubator at 37°C. The culture medium was changed every 2-3 days and cells were passaged when a confluency of 75-80% was reached. At passage 2 or above, HepG2 cells were harvested using 0.25% trypsin-0.53 mM EDTA (Gibco). Cell counts and cell viability were determined by an automated cell counting machine (vi-CELL, Beckman) and seeded at a density of 1x10^4-5x10^5 cells per well in a transparent flat-bottom 96-well plate (Corning), and maintained in a humidified 5% CO2 incubator at 37°C. […] As a vehicle control, 1% DMSO was used. After 48 hs, media was removed and replaced with 100 μl media containing 10% resazurin solution (Invitrogen) and incubated for 4 h at 37°C in 5% CO2. After 4 h, the solution was transferred to an opaque 96-well plate (Corning) to measure reduction of resazurin to resorufin using a SpectraMax M5 microplate reader (Molecular Devices LLC) (ex. 560 nm, em. 590 nm). Cells without treatment compounds were used to determine 100% viability. Cell viability was determined by measuring fluorescence as a % of solvent control. Concentration viability response curves, CC50 values, mean CC50 value and standard error were generated using GraphPad Prism 10 (GraphPad Software).
(In general: The colour change of resazurin is a common sign of viable cells or microbes.)

The target in data set [6] is T2, human 20S proteasome (H20S), chymotrypsin-like β5 activity (Homo sapiens, UniProt P20618+P28074).
T2 construct: variant as stated: H20S
As to the kind of experiment: Human 20S proteasome kinetic assay (chymotrypsin-like β5 activity). Format: biochemical. As to conditions: purified human 20S proteasome, β5 activity, substrate LLVY-R110, fluorescence; duplicate; read-out: IC50, nM H20S inhibition. On the procedure:
as §1

One may read the EC50 as the concentration giving half of the maximal effect. A word on the IC50: it is the concentration that inhibits the measured activity by half.

“And” between values parts separate entries of the source, which are not always exact repeats. Identical values can stand only once.

T1 sequence (Q8I0V0 218-688): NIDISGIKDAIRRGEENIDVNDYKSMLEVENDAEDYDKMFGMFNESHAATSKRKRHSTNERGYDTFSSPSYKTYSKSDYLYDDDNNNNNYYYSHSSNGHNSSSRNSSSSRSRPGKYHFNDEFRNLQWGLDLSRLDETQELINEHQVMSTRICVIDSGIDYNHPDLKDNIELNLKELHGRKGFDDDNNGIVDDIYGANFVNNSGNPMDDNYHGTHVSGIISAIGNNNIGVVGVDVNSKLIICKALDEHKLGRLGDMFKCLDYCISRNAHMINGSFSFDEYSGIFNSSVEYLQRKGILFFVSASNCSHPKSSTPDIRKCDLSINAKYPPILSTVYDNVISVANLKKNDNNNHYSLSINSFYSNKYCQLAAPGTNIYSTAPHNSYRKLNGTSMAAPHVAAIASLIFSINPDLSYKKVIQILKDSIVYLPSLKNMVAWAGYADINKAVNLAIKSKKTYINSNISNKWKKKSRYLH

Consider `CC[C@H](C)[C@H](NC(=O)[C@@H](NC(=O)c1cc(C)cc(C)c1)C1CCCC1)C(=O)NCC(=O)N[C@H]1CCC(=O)OB1O` [4c, N-((S)-1-cyclopentyl-2-(((2S,3S)-1-((2-(((R)-2-hydroxy-6-oxo-1,2-oxaborinan-3-yl)amino)-2-oxoethyl)amino)-3-methyl-1-oxopentan-2-yl)amino)-2-oxoethyl)-3,5-dimethylbenzamide], for which the “selectivity versus H20S” value in data set [1] is above 60 fold. The EC50 turned out to be 160 nM in data set [2] and 2260 nM in data set [4]. Besides, the “fold higher sensitivity of 1AC5 line than of B11 line” value in data set [2] (growth inhibition, 1AC5 vs wild-type B11) was 13 fold and ~ 13 fold. Also, the IC50 in data set [3] is 15.3 ± 0.1 nM. The “CC50 (concentration that reduced cell viability by 50%)” value in data set [5] came out at 296000 nM. Further, in data set [5] (HepG2 CC50 of 4c vs 1a), the “factor by which less toxic to HepG2 than 1a” value came to 27 fold.
Take `CC(=O)N[C@H](C(=O)N[C@H](C(=O)NCC(=O)N[C@@H](C)B(O)O)C(C)C)C1CCCC1` [1a]: the IC50 in data set [6] is 32.8 ± 1.7 nM. The EC50 in data set [2] amounted to 130 nM; in data set [4], 150 nM. In addition, the “CC50 (concentration that reduced cell viability by 50%)” value in data set [5] was determined as 11000 nM.
